Reference: article PMC8943092, “Broad thermal spectrum metagenomic laccase with action for dye decolorization and fentin hydroxide treatment” (AMB Express, 2022)

System: LacMeta
Settings: pH 4.0, 20 mM sodium citrate, 37 °C; copper-loaded enzyme 0.066 µM; ABTS 0.1-10 mM

**Q.** With `CCn1c(=NN=c2sc3cc(S(=O)(=O)O)ccc3n2CC)sc2cc(S(=O)(=O)O)ccc21` [ABTS, 2,2′-azino-bis (3-ethylbenzothiazoline-6-sulfonic acid)] as the compound, how does the Km read?
**A.** Its Km is 4.22 ± 0.374 mM.
